Consider ten compounds from patent publication US20230303647A1, “CYCLIC CHEMERIN-9 DERIVATIVES” (priority 2020, published 2023).

A word on the half-life: it is the time in which the quantity being followed falls by half. Usually EC50 stands for the concentration that produces a half-maximal response. Read a high EC50 as a less potent agent. Usually Emax stands for the size of the effect at its maximum, as opposed to the concentration needed.

One series in a line: in vitro. As to conditions: human, plasma.
For series [1], the target named is T1, CMKLR1 (Homo sapiens, UniProt Q99788).
T1 sequence (Q99788 1-373): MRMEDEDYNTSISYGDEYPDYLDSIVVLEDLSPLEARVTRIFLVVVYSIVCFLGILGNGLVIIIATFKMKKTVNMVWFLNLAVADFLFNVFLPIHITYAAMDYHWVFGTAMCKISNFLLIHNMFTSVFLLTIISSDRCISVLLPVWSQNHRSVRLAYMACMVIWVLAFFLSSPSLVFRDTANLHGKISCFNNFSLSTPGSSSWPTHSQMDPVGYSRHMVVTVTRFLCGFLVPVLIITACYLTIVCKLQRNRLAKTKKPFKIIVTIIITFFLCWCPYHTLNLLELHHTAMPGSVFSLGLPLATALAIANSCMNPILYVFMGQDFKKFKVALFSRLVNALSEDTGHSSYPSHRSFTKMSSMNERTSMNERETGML
The experiment in a line: BRET-based arrestin 3 recruitment assay. As to conditions: for arrestin 3 recruitment to the CMKLR1 (in words): BRET, compared with chemerin-9; for Emax: read-out: Emax [%] ± SEM.
Experimental: HEK293 cells were transiently transfected using 75 cm^2 cell culture flasks with cell monolayers (confluency of ˜80%). Plasmid DNA of the C-terminally eYFP tagged human CMKLR1 and the chimeric G protein GαΔ6qi4myr in a pVitro2 vector (7.8 μg) and Renilla-luciferase 8-tagged Arrestin 3 in pcDNA3 (0.2 μg) and 24 μl MetafectenePro were separately added to 900 μl DMEM/Ham's F12 and incubated for 10 min before unification and incubation at RT for 20 min. […] The plasmid solution was added and cells were incubated overnight before seeding. Cell seeding was carried out in white 96-well polystyrene cell culture microplates, coated with poly-D lysine. […] Afterwards, the cells were incubated overnight at 37° C. The assay was performed under unsterile conditions. […] Afterwards, the cells were stimulated with the peptides in different concentrations (10^−5 to 10^−12 M) dissolved in BRET buffer. 50 μl of the peptide dilution were used for cell stimulation. Buffer without peptide was used as a negative control. […] The values of the negative control were subtracted, non-linear regression was calculated using GraphPad Prism. […] All measurements were performed in four technical replicates, all experiments were repeated at least twice.
The bioluminescence resonance energy transfer (BRET) assay was used to determine the potency of cyclic chemerin variants to recruit arrestin 3 to the CMKLR1 receptor after stimulation. HEK293 cells were transiently transfected with CMKLR1 receptor fused with eYFP fluorophore and Arrestin 3 tagged with Rluc8 luciferase. The transfected cells were seeded, incubated with the luciferase substrate coelenterazine-h and stimulated with different peptide concentrations, resulting in measurable BRET signals.

Series [2] has as its target T1, CMKLR1. Description: Fluorescence microscopy of CMKLR1 internalization and arrestin 3 recruitment. Set-up: expressed in transfected cells; host or cells: HEK293. The format is cell-based. As to conditions: HEK293 cells, 1 μM peptide. How it is done:
Ibidi 15μ-slides were coated with poly D-lysine before cell seeding. Cells were washed with DPBS prior to detachment with 1 ml trypsin/EDTA. […] The cell suspension was diluted to 140,000 cells/200 μl, which were seeded. Incubation was carried out overnight at 37° C. Afterwards, cells were transiently transfected. Plasmid DNA of hCMKLR1_eYFP_GαΔ6qi4myr_pV2 (0.9 μg) and mCherry_Arr3_pcDNA3 (0.1 μg) and 8 μl Lipofectamine were separately added to 100 μl DMEM/Ham's F12 and incubated for 10 min before unification and incubation at RT for 20 min. Incubation was carried out overnight at 37° C. […] The medium was replaced by 200 μl of OptiMEM and the to status was documented. The OptiMEM was then replaced by 200 μl of 1 μM peptide in OptiMEM. Fluorophore excitation was analyzed using different filters, depending on the emission wavelength of the fluorophore and the time of exposure was adjusted to each fluorophore individually. All images were processed identically with the AxioVision software (Carl Zeiss AG, Oberkochen, Germany).
To verify the arrestin-recruitment and analyze the internalization of the CMKLR1 receptor itself, HEK293 cells were used and transiently transfected with fluorescent labeled variants of the two molecules.
FIG. 2: Internalization of CMKLR1 and arrestin 3 recruitment. HEK293 cells expressing the hCMKLR1 (green) and arrestin 3 (Arr3; red) due to transient transfection were used for the internalization studies.

Series [3] deals with T1, CMKLR1. The experiment in a line: Ca2+ mobilization assay (G protein-mediated signaling). As to conditions: for G protein signaling activity (in words): Ca2+ mobilization assay. A general note: Calcium flux is commonly read through the fluorescence of an indicator in the cells.
Experimental: COS-7 cells were transfected in 75 cm^2 cell culture flasks with 12 μg of the hCMKLR1_eYFP_GαΔ6qi4myr_pV2 plasmid overnight using Metafectene Pro. Transfected cells were seeded in 96 well plates (100 μL cell suspension in DMEM+10% FBS/well) and incubated overnight. The following day, the Ca^2+-mobilization was performed as described previously. […] All experiments were performed in triplicates, each experiment was repeated at least twice. Nonlinear regression was calculated using GraphPad Prism 5.
The nature of series [4]: Plasma stability assay of Tam-labeled peptides. As to conditions: for half-life: human; for stability in blood plasma: over a time period of 24 h.
Experimental: (§1) Investigation of peptide stability in blood plasma was carried out as described previously. […] Samples taken at the respective time points were added to a solution of 0.1% SDS in ACN/EtOH (1:1). After incubation at −20° C. for 20 min, the supernatant was transferred to a new tube and incubated again at −20° C. for at least 3 h. The solution was filtered by centrifugation using Costar Spin-X tubes (0.22 μm) and the filtrate was analyzed by RP-HPLC on a VariTide RPC. […] Peaks were integrated and the peak containing the intact peptide was normalized to the sample taken at t=0 min (100%).
Setting [5] is: pEC50 ± SEM, COS-7 cells transfected with hCMKLR1_eYFP_GαΔ6qi4myr, normalized to chemerin-9.

The structures appear in SMILES notation. “Also recorded” adds a separate entry of the source. *1 amine or outer side, *2 acyl side, *3 side chain or, on linkers, in order; H or OH if unused. Where a SMILES comes first, the peptide text is derived from it. Bridges are numbered along the chain shown (N, C = ends). [ ]: non-standard residue; d: D form. The star is where a group is joined. ξ: configuration not given here. X1 = CN(C)c1ccc2c(-c3cc(C(=O)*)ccc3C(=O)[O-])c3ccc(=[N+](C)C)cc-3oc2c1; X2 = CN(C)c1ccc2c(-c3cc(C(=O)*)ccc3C(=O)O)c3ccc(=[N+](C)C)cc-3oc2c1; PEG4 = NCCOCCOCCOCCOCCC(=O)O; d(hCys) = N[C@H](CCS)C(=O)O; hCys = N[C@@H](CCS)C(=O)O; ξF = NC(Cc1ccccc1)C(=O)O; CH2 = C([*:1])[*:2]; ξC = NC(CS)C(=O)O Where only a bound is given, the exact number is not on record here.

Experimental for in vitro: as §1

In “in vitro”, `C[C@H](NC(=O)[C@H](Cc1ccccc1)NC(=O)[C@H](CCC(N)=O)NC(=O)CNC(=O)[C@@H]1CCCN1C(=O)[C@H](Cc1ccccc1)NC(=O)[C@H](Cc1ccc(O)cc1)NC(=O)c1ccc(C(=O)O)c(-c2c3ccc(=[N+](C)C)cc-3oc3cc(N(C)C)ccc23)c1)C(=O)N[C@@H](Cc1ccccc1)C(=O)N[C@@H](CO)C(=O)O` [$$ 2, Tam-chemerin-9] came in with a half-life of under 0.2 h.
With `C[C@@H]1NC(=O)[C@H](Cc2ccccc2)NC(=O)[C@H](CCC(N)=O)NC(=O)[C@H](NC(=O)[C@@H]2CCCN2C(=O)[C@H](Cc2ccccc2)NC(=O)[C@H](Cc2ccc(O)cc2)NC(=O)CCOCCOCCOCCOCCN)CCSSC[C@@H](C(=O)O)NC(=O)[C@H](Cc2c[nH]c3ccccc23)NC1=O` [$$ 18, EG4-[x4,W8,C9]-chemerin-9] (H-[PEG4]YFP[d(hCys)]QFAWC-OH; disulfide 5-10), the “arrestin 3 recruitment to the CMKLR1 (in words)” value on CMKLR1 [1] was “accepted”. In addition, the EC50 at CMKLR1 [1] (EC50, HEK293 cells, CMKLR1-eYFP and Rluc8-arrestin 3, 15 min after agonist addition) is 418 nM; on CMKLR1 [3], 193 nM. Further, the Emax at CMKLR1 [1] was 69 ± 8%. Besides, the “arrestin 3 recruitment” value at CMKLR1 [2] was “good arrestin 3 recruitment”. Further, at CMKLR1 [2] (compared to chemerin-9), the receptor internalization entry is recorded as “slightly lower receptor internalization”.
`C[C@@H]1NC(=O)[C@H](Cc2ccccc2)NC(=O)[C@H](CCC(N)=O)NC(=O)[C@H](NC(=O)[C@@H]2CCCN2C(=O)[C@H](Cc2ccccc2)NC(=O)[C@H](Cc2ccc(O)cc2)NC(=O)c2ccc(C(=O)O)c(-c3c4ccc(=[N+](C)C)cc-4oc4cc(N(C)C)ccc34)c2)CSSC[C@@H](C(=O)O)NC(=O)[C@H](Cc2ccccc2)NC1=O` [$$ 5, Tam-[c4,C9]-chemerin-9] (X2-YFP[dC]QFAFC-OH; disulfide 4-9) yielded a half-life in series [4] (human blood plasma) of over 24 h. In addition, the “stability in blood plasma” value in series [4] is listed as “completely stable”.
The matching figures for `CN(C)c1ccc2c(-c3cc(C(=O)NCCCC[C@H]4NC(=O)C(Cc5ccccc5)NC(=O)[C@@H](CCC(N)=O)NC(=O)[C@H](NC(=O)[C@@H]5CCCN5C(=O)[C@@H](Cc5ccccc5)NC(=O)[C@H](N)Cc5ccc(O)cc5)CSSCC(C(=O)O)NC(=O)[C@@H](Cc5ccccc5)NC4=O)ccc3C(=O)[O-])c3ccc(=[N+](C)C)cc-3oc2c1` (stereo partly drawn) [$$ 12, [y1,c4,K7(Tam),C9]-chemerin-9] (H-[dY][dF]P[dC][dQ][ξF][dK](X1)[dF][ξC]-OH; disulfide 4-9): over 24 h and “equally stable”.
`C[C@@H]1NC(=O)[C@H](Cc2ccccc2)NC(=O)[C@H](CCC(N)=O)NC(=O)[C@H](NC(=O)[C@@H]2CCCN2C(=O)[C@H](Cc2ccccc2)NC(=O)[C@H](Cc2ccc(O)cc2)NC(=O)CCOCCOCCOCCOCCNC(=O)c2ccc(C(=O)[O-])c(-c3c4ccc(=[N+](C)C)cc-4oc4cc(N(C)C)ccc34)c2)CCSSC[C@@H](C(=O)O)NC(=O)[C@H](Cc2ccccc2)NC1=O` [$$ 17, Tam-EG4-[x4,C9]-chemerin-9] ({X1-PEG4}-YFP[d(hCys)]QFAFC-OH; disulfide 4-9) showed a half-life in series [4] (human blood plasma) of over 48 h.
Consider `C[C@@H]1NC(=O)[C@H](Cc2ccccc2)NC(=O)[C@H](CCC(N)=O)NC(=O)[C@H](NC(=O)[C@@H]2CCCN2C(=O)[C@H](Cc2ccccc2)NC(=O)[C@@H](N)Cc2ccc(O)cc2)CSCSCC[C@@H](C(=O)O)NC(=O)[C@H](Cc2ccccc2)NC1=O` [$$ 9, [c4,X9-TA]-chemerin-9] (H-YFP[dC]QFAF[hCys]-OH; linker 4-9 via CH2), for which the “stability in blood plasma” value in series [4] is recorded as “completely stable”. On CMKLR1 [3] (COS-7 cells transfected with hCMKLR1_eYFP_GαΔ6qi4myr, normalized to chemerin-9), the “pEC50 ± SEM” value was found to be 7.429 ± 0.110.
The compound `C[C@@H]1NC(=O)[C@H](Cc2ccccc2)NC(=O)[C@H](CCC(N)=O)NC(=O)[C@H](NC(=O)[C@@H]2CCCN2C(=O)[C@H](Cc2ccccc2)NC(=O)[C@H](Cc2ccc(O)cc2)NC(=O)CCOCCOCCOCCOCCNC(=O)c2ccc(C(=O)[O-])c(-c3c4ccc(=[N+](C)C)cc-4oc4cc(N(C)C)ccc34)c2)CCSSC[C@@H](C(=O)O)NC(=O)[C@H](Cc2c[nH]c3ccccc23)NC1=O` [$$ 19, Tam-EG4-[x4,W8,C9]-chemerin-9] ({X1-PEG4}-YFP[d(hCys)]QFAWC-OH; disulfide 4-9) registered a half-life in series [4] (human blood plasma) of over 48 h.
On to `C[C@@H]1NC(=O)[C@H](Cc2ccccc2)NC(=O)[C@H](CCC(N)=O)NC(=O)[C@H](NC(=O)[C@@H]2CCCN2C(=O)[C@H](Cc2ccccc2)NC(=O)[C@H](N)Cc2ccc(O)cc2)CCSSC[C@@H](C(=O)O)NC(=O)[C@H](Cc2c[nH]c3ccccc23)NC1=O` [$$ 15, [y1,x4,W8,C9]-chemerin-9] (H-[dY]FP[d(hCys)]QFAWC-OH; disulfide 4-9), for which the “arrestin 3 recruitment to the CMKLR1 (in words)” value on CMKLR1 [1] is “no longer able to induce arrestin 3-recruitment; also recorded: completely abolishes arrestin recruitment”. The “arrestin 3 recruitment and internalization of the CMKLR1” value on CMKLR1 [2] (30 min stimulation) is given as “neither internalization of the hCMKLR1 nor arrestin 3 recruitment could be detected”. For the same compound, the “G protein signaling activity (in words)” value at CMKLR1 [3] is listed as “significantly decreased activity”. In addition, on CMKLR1 [3] (setting [5]), the EC50 is 207 nM.
On to `C[C@@H]1NC(=O)[C@H](Cc2ccccc2)NC(=O)[C@H](CCC(N)=O)NC(=O)[C@H](NC(=O)[C@@H]2CCCN2C(=O)[C@H](Cc2ccccc2)NC(=O)[C@@H](N)Cc2ccc(O)cc2)CCSSC[C@@H](C(=O)O)NC(=O)[C@H](Cc2c[nH]c3ccccc23)NC1=O` [$$ 14, [x4,W8,C9]-chemerin-9] (H-YFP[d(hCys)]QFAWC-OH; disulfide 4-9), for which, on CMKLR1 [1], the EC50 is 158 nM, the “arrestin 3 recruitment to the CMKLR1 (in words)” value is on record as “accepted; also recorded: no impact” and the Emax came out at 97 ± 10%. Besides, the “G protein signaling activity (in words)” value on CMKLR1 [3] is on record as “increased the activity even more”. Besides, at CMKLR1 [3] (EC50, COS-7 cells transfected with hCMKLR1_eYFP_GαΔ6qi4myr, normalized to chemerin-9), the EC50 was determined as 3 nM. The compound also showed an EC50 at CMKLR1 [3] (setting [5]) of 3.17 nM.
In series [4] (plasma), `C[C@@H]1NC(=O)[C@H](Cc2ccccc2)NC(=O)[C@H](CCC(N)=O)NC(=O)[C@H](NC(=O)[C@@H]2CCCN2C(=O)[C@H](Cc2ccccc2)NC(=O)[C@H](Cc2ccc(O)cc2)NC(=O)c2ccc(C(=O)[O-])c(-c3c4ccc(=[N+](C)C)cc-4oc4cc(N(C)C)ccc34)c2)CSCSC[C@@H](C(=O)O)NC(=O)[C@H](Cc2ccccc2)NC1=O` [$$ 8, Tam-[c4,C9-TA]-chemerin-9] (X1-YFP[dC]QFAFC-OH; linker 4-9 via CH2) gave a half-life of over 24 h. Also, in series [4], the “stability in blood plasma” value is on record as “completely stable”.
